Measurements taken from patent US9200017B2, “Multimodal imaging of fibrin” (The General Hospital Corporation, priority 2009, dated 2015).
Positions of bridges follow the written chain, without caps; N, C: chain ends. Non-standard residues stand in square brackets, D forms with d. Residues, ends and D or L forms follow the SMILES beside them. *: point of attachment. DOTA(p-xylylenediamine) = O=C(O)CN1CCN(CC(=O)O)CCN(CC(=O)NCc2ccc(CN*)cc2)CCN(CC(=O)O)CC1; X1 = O=C1OC2(c3ccc(O)cc3Oc3cc(O)ccc32)c2ccc(NC(=S)NCc3ccc(CN*)cc3)cc21; FITC = O=C1OC2(c3ccc(O)cc3Oc3cc(O)ccc32)c2ccc(NC(=S)*)cc21; DOTA = O=C(O)CN1CCN(CC(=O)O)CCN(CC(=O)*)CCN(CC(=O)O)CC1; Tyr(3-Cl) = N[C@@H](Cc1ccc(O)c(Cl)c1)C(=O)O; Hyp = O=C(O)[C@@H]1C[C@@H](O)CN1; Ahx = NCCCCCC(=O)O

What was measured:
[1] = target: T1, Human fibrin (Homo sapiens, UniProt P02671+P02675+P02679); assay: Binding to human fibrin, dried fibrin microtiter plate, stoichiometric binding model; settings: dried human fibrin about 2.5 mg/mL, compound 0.1 to 50 μM, 2 h; read-out: Kd, first binding event
T1 construct: thrombin cleaves fibrinopeptides on fibrinogen resulting in an end-to-end polymerization to give the polymer fibrin; Human fibrinogen (American Diagnostica) was dialyzed; purchased American Diagnostica
T1 sequence (P02671 36-629 limits assumed): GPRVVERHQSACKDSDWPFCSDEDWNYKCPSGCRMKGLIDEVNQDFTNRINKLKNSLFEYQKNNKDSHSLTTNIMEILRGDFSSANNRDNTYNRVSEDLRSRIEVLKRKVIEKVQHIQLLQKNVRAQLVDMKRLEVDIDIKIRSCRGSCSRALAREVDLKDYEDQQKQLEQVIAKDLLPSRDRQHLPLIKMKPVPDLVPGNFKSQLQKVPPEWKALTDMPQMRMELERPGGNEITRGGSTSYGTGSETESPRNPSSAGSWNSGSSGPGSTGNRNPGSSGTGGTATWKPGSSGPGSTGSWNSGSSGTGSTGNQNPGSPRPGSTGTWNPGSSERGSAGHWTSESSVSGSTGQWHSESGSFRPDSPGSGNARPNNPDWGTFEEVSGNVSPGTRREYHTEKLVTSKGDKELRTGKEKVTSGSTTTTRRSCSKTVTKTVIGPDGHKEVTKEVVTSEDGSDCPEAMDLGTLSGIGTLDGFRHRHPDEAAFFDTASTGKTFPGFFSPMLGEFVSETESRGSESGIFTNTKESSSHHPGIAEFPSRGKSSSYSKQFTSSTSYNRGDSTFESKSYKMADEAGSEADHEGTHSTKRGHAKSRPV
T1 sequence (P02675 45-491 limits assumed): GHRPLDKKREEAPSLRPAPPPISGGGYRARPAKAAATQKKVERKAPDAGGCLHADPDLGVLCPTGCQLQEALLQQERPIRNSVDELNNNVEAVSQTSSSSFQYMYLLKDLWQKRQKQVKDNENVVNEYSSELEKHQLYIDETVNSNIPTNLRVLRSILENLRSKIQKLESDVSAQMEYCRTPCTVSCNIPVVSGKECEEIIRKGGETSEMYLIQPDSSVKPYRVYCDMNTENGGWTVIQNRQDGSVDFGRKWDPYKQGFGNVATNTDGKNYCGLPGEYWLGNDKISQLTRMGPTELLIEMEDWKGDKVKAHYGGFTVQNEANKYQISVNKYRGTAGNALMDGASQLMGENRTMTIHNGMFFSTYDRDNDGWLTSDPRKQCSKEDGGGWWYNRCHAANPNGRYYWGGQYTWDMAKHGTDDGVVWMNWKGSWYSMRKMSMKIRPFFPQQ
T1 sequence (P02679 27-437 isoform P02679-2 limits assumed): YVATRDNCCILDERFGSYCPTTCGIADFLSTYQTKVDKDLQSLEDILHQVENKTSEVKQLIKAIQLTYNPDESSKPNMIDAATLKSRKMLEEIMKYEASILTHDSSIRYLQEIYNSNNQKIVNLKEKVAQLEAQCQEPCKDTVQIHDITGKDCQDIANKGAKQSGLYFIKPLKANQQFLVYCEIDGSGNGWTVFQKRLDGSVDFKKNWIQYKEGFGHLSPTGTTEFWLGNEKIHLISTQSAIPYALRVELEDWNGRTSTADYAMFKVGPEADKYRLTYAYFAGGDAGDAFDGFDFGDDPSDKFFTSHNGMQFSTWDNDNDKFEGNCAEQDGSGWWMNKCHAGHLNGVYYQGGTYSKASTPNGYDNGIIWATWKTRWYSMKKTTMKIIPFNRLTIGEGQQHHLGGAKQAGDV
Procedure: Binding can also be assessed by a dried fibrin assay. Here, purified fibrinogen (2.5 mg/mL; 7 μM fibrin) is clotted with thrombin and dried to a thin film in wells of a microtiter plate. The resulting clots bind to the plate without loss of protein. The clots are rehydrated with buffer containing known concentrations of peptide. After incubation at 37° C. for 2 hr, the concentration of peptide in the supernatant ([peptide]free) is determined (e.g. by HPLC or if the peptide is labeled with a fluorophore by fluorescence, or if labeled by a radionuclide concentration is determined by radioactivity). The concentration of fibrin-bound peptide ([peptide]bound) is calculated by subtraction ([peptide]bound)=[peptide]total−[peptide]free). A dissociation constant (Kd) for fibrin binding can be determined by fitting a plot of [peptide]bound versus [peptide]free to either a stoichiometric (see e.g. Nair et al., Angew Chem Int Ed 2008 47:4918-21) or equivalent binding sites model (see e.g. Overoye-Chan et al. J Am Chem Soc 2008 130:6025-39). […]
Solutions of compound ranging from 0.1 to 50 μM were added to each of the wells of the dried fibrin microtiter plate, and the plate was shaken for 2 h. After incubation, solution was removed and the concentration of unbound compound was determined from its radioactivity or by ICP-MS. […]

[2] = system: fibrin gel; assay: MR phantom study at 1.5 T in fibrinogen solution and fibrin gel; settings: 25 μM Gd in 5 mg/mL fibrin gel, T1-weighted
Procedure: Fibrinogen (fgn) (50 mg, American Diagnostica) was dissolved in 1 mL of TBS (50 mM Tris, 150 mM sodium chloride, pH 7.4) and was dialyzed against TBS with 5 mM sodium citrate. The concentration of the resulting fibrinogen solution was 8.8 mg/mL based on the absorbance at 280 nm where 1 mg/mL fgn has an optical density of 1.512 for a 1 cm path length. Solutions were prepared by diluting stock solutions of gadolinium probe and fgn to final solutions of 25 μM Gd and 5 mg/mL fgn. Gadolinium concentrations were determined by ICP-MS. Fibrin gels were prepared by adding CaCl2 and thrombin to a final concentration of 7 mM and 4 U/mL, respectively. After briefly mixing the CaCl2 and thrombin, the solutions were allowed to gel/clot for 30 minutes. After fibrin (fbn) formation was complete, the clots were pushed to the wall of the tube with a pipet tip. A total of 6×0.5 mL phantoms were prepared in 1 mL centrifuge tubes: A) pure water; B) 5 mg/mL fibrinogen; C) [Gd(HP-DO3A)] at 25 μM in 5 mg/mL fgn; D) [Gd(HP-DO3A)] at 25 μM in 5 mg/mL fbn gel; E) GdDOTA-cyclic-FBP-p-XD-FITC (compound 17) at 25 μM in 5 mg/mL fgn; F) GdDOTA-cyclic-FBP-p-XD-FITC (compound 17) at 25 μM in 5 mg/mL fbn gel.
All 6 phantoms were simultaneously imaged at room temperature at 1.5 T with a clinical MRI. T1-weighted gradient echo images were acquired with repetition time TR=9.2 ms, echo time TE=1.9 ms, flip angle=25°.

[3] = target: T2, fibrin gel (Homo sapiens, UniProt P02671+P02675+P02679); assay: Phantom study with fluorescence imaging in fibrinogen solution and fibrin gel; settings: 50 nM in 2 mg/mL fibrin gel
T2 construct: thrombin cleaves fibrinopeptides on fibrinogen resulting in an end-to-end polymerization to give the polymer fibrin; Fibrin is a fibrillar protein derived from the soluble plasma protein fibrinogen
T2 sequence (P02671 36-629 limits assumed): T1 sequence (P02671 36-629 limits assumed)
T2 sequence (P02675 45-491 limits assumed): T1 sequence (P02675 45-491 limits assumed)
T2 sequence (P02679 27-437 isoform P02679-2 limits assumed): T1 sequence (P02679 27-437 isoform P02679-2 limits assumed)
Procedure: A 10 mM solution of fluorescein was prepared in ethanol by adding 0.0113 g of fluorescein to 3 mL EtOH. This solution was diluted in water to prepare a 9.99 μM solution. Also, a dilute solution of GdDOTA-cyclic-FBP-p-XD-FITC was prepared with a final concentration of 8.55 μM. Four phantoms were prepared in 1 mL glass tubes. Each phantom contained fibrinogen at a final concentration of 2 mg/mL, 50 pmol of GdDOTA-cyclic-FBP-p-XD-FITC or fluorescein, at a total volume of 1 mL. In two of the phantoms, fibrin gels were prepared by adding CaCl2 and thrombin to a final concentration of 7 mM and 4 U/mL, respectively. Once the clots had formed, the mixture was centrifuged and the clots settled to the bottom. The 4 phantoms were labeled: A) GdDOTA-cyclic-FBP-p-XD-FITC in fgn; B) GdDOTA-cyclic-FBP-p-XD-FITC in fbn gel; C) fluorescein in fbn gel D) fluorescein in fgn. The phantoms were imaged with an IVIS Spectrum imager.

[4] = target: T2, fibrin gel; assay: Phantom study with PET in fibrinogen solution and fibrin gel; settings: 2 mg/mL fibrin gel, 150 nCi, 2.3 nmol, 21° C.
Procedure: ^64CuDOTA was prepared by reacting 200 μCi of ^64CuCl2 with DOTA ligand (50 nmol) in 200 μL water at pH 6.5. The pH of the solution was maintained at 6.5 and the reaction was stirred at 50° C. for 30 min. The solution was then passed through a cation-exchange resin. The resin was washed with water and the total final volume was 600 μL.
Six phantoms were prepared in 4 mL glass culture tubes. Each phantom contained fibrinogen (fgn) at a final concentration of 2 mg/mL, 2.3 nmol of peptide or DOTA, a total volume of 2 mL, and a total activity of 150 nCi. In 3 of the phantoms, Fibrin gels (fbn) were prepared by adding CaCl2 and thrombin to a final concentration of 7 mM and 4 U/mL, respectively. Once the clots had formed, the mixture was centrifuged and the clots settled to the bottom. […]
The 6 tubes were placed in a holder with each tube equidistant from the isocenter and PET data was collected for 15 minutes. […] Each of the 32 PET detector modules consists of six 12×12 LSO crystal arrays read out by a 3×3 array of APDs (Hamamatsu 8664-55, Japan). […] The emission data recorded in list-mode format were sorted in the line of response space and compressed axially in the sinogram space for fast reconstruction. The normalization was calculated from a 64-hour scan of a plane-source rotated in the FOV. […]

Row | Kd [1] [nM] | Fluorescence intensity distribution between fibrin clot and liquid [3] | SMILES | MR signal distribution between clotted fibrin and supernatant [2] | PET activity distribution between fibrin clot and liquid above the clot [4]
1 | 900 ± 300 | – | CC[C@H](C)[C@H](NC(=O)[C@H](Cc1ccc(O)cc1)NC(=O)[C@@H]1CSSC[C@H](NC(=O)[C@@H](CCC(=O)O)NC(=O)[C@H](Cc2ccc(O)cc2)NC(=O)CCCCCNC(=S)Nc2ccc3c(c2)C(=O)OC32c3ccc(O)cc3Oc3cc(O)ccc32)C(=O)N2C[C@H](O)C[C@H]2C(=O)N[C@@H](Cc2ccc(O)c(Cl)c2)C(=O)NCC(=O)N[C@@H](CC(C)C)C(=O)N1)C(=O)N[C@@H](CCC(N)=O)C(=O)NCc1ccc(CNC(=O)CN2CCN(CC(=O)O)CCN(CC(=O)O)CCN(CC(=O)O)CC2)cc1 [Compound 11, FITC-hexyl-cyclic-FBP-p-XD-DOTA-Gd] ({FITC-Ahx}-Y[dE]C[Hyp][Tyr(3-Cl)]GLCYIQ-{DOTA(p-xylylenediamine)}; disulfide 3-8) | – | –
2 | – | – | CC(O)CN1CCN(CC(=O)[O-])CCN(CC(=O)[O-])CCN(CC(=O)[O-])CC1.[Gd+3] (stereo not drawn) [GdHP-DO3A, reference compound] | distributed equally between the clotted fibrin and the supernatant | –
3 | 800 ± 300 | localizes in the fibrin clot | CC[C@H](C)[C@H](NC(=O)[C@H](Cc1ccc(O)cc1)NC(=O)[C@@H]1CSSC[C@H](NC(=O)[C@@H](CCC(=O)O)NC(=O)[C@H](Cc2ccc(O)cc2)NC(=O)CN2CCN(CC(=O)O)CCN(CC(=O)O)CCN(CC(=O)O)CC2)C(=O)N2C[C@H](O)C[C@H]2C(=O)N[C@@H](Cc2ccc(O)c(Cl)c2)C(=O)NCC(=O)N[C@@H](CC(C)C)C(=O)N1)C(=O)N[C@@H](CCC(N)=O)C(=O)NCc1ccc(CNC(=S)Nc2ccc3c(c2)C(=O)OC32c3ccc(O)cc3Oc3cc(O)ccc32)cc1 [Compound 17, GdDOTA-cyclic-FBP-p-XD-FITC] ({DOTA}-Y[dE]C[Hyp][Tyr(3-Cl)]GLCYIQ-X1; disulfide 3-8) | binding to the fibrin | –
4 | – | – | O=C([O-])CN1CCN(CC(=O)O)CCN(CC(=O)[O-])CCN(CC(=O)O)CC1.[64Cu+2] [^64CuDOTA] | – | distributed equally in the clot (bottom of tube B) and in the liquid above the clot
